Test results as given in patent publication US5874461A, “Use of Nebivolol as an anti-atherogenic” (priority 1995, dated 1999).

Key:
[1] = system: spontaneous hypertensive rats; details: acute; cited from earlier work
human LDL = test: In vitro oxidation of human LDL (Cu-induced conjugated diene formation at 234 nm); assay type: biochemical; details: in vitro
Experimental: In vitro oxidation of human LDL Human venous blood was collected on EDTA (2.68 mM final concentration). Plasma was isolated by centrifugation. NaBr (37.3 mg/ml) was added and solubulized (final density 1.036 g/ml). Centrifuge tubes were first filled to a level corresponding to 2/3 of their maximal volume, further filled with a NaBr solution of 1.036 g/ml and then centrifuged for 18 hours at 45000 rpm in a 50 Ti rotor (Beckmann). After centrifugation, floating lipoproteins were discarded. The remaining solution was adjusted to a density of 1.055 g/ml. Filling of the centrifuge tubes and centrifugation were repeated as described above. After centrifugation, floating LDL was dialysed against a buffer containing 127 mM NaCl, 8 mM Na2 HPO4.2H2 O, 2.7 mM KCl and 1.47 mM KH2 PO4 at pH 7.4. After dialysis, LDL was filtered though a Millipore filter (0.45 μM) and protein content was determined. A dilution of 25 μg/ml was prepared with a millipored dialysis buffer. Oxidation was determined in a Pharmacia Ultraspec III spectrophotometer. Conjugated diene formation was registered at 234 nm. Two μl of a drug or solvent (DMSO) were added to Eppendorf tubes followed by 1 ml of LDL (25 μg/ml) and these substances were gently mixed and centrifuged for 1 min at 13000 g. The solution was pipetted in a Quartz cuvet that was thermostatised in the spectrophotometer at 37° C. After equilibration, the oxidation reaction was started by the addition of CuSO4 (final concentration 10 μM). Absorbance was measured every 3 minutes during the time course of the experiment. The absorbance at 234 nm was divided into three phases: a lag phase, a propagation phase and a decomposition phase (FIG. 1). The lag phase was defined as the intercept with the baseline of the tangent of the slope of the absorbance curve of the propagation phase. The rate of oxidation was defined as the tangent of the slope. Tmax was defined as the time required to attain the maximum absorbance between the propagation and the decomposition phase. The absorbance at tmax minus the absorbance at to was taken as an indicator of the total amount of dienes formed. To verify the reproducibility of the assay, a reference LDL sample was prepared and kept in darkness under nitrogen at 4° C. This reference sample was included in every oxidation experiment. LDL was isolated from 23 subjects. Plasma cholesterol ranged from 156 to 278 mg/dl (mean 213 mg/dl), triglycerides ranged from 47 to 328 mg/dl (mean 191 mg/dl) and phospholipids ranged from 178 to 327 mg/dl (mean 231 mg/dl).

[2] = system: rats (age-associated vascular pathology); test: In-vivo anti-atheromatic effect: 24-month oral study in rats, histological score of vascular degeneration/aging
Experimental: In order to verify whether nebivolol had any effects on age-associated vascular pathology, a number of rats were administered nebivolol orally at dosages of 0 (carrier-only), 2.5, 10 and 40 mg/kg during 24 months. As a carrier there was used 2-hydroxypropyl-β-cyclodextrin which improves the bioavailability of nebivolol. At each dose a male and a female group of 50 were entered in the 2 year study. […] The test animals were autopsied and observed for histological non-neoplastic changes.
vasculopathy of the abdominal mesothelia, pancreas, and testis,
focal and diffuse hyperplasia of the parathyroid gland, and
the renal histology, in particular the number of basophilic tubuli, evidence for chronic renal disease and for mineralization.
Histopathological observations received a score from 0 to 3 as follows:
0: no histological change
1: slight histological change
2: moderate histological change
3: severe histological change.
For each observation a mean score was calculated. The observed ratings were analysed using the Mann-Whitney U test (two tailed probability) to detect statistically significant differences between the control groups and the treated groups. Significance computed by Mann-Whitney U test two-tailed: * p<0.05 ** p<0.01 p<0.001.

[3] = females, 2.5 mg/kg oral, 24 months
[4] = females, 10 mg/kg oral, 24 months
[5] = females, 40 mg/kg oral, 24 months
[6] = males, 2.5 mg/kg oral, 24 months
[7] = males, 10 mg/kg oral, 24 months
[8] = males, 40 mg/kg oral, 24 months

O[C@H](CNC[C@@H](O)[C@H]1CCc2cc(F)ccc2O1)[C@@H]1CCc2cc(F)ccc2O1 (relative stereo) [nebivolol, (RSSS) and (SRRR) α,α'-iminobis(methylene)bis[6-fluoro-2-chroman-methanol]]
blood pressure [1]: acutely lowers blood pressure | antioxidative effect on human LDL (human LDL): no antioxidative effect | normal aging of the vascular system ([2]; chronic treatment, versus control animals): the normal aging of the vascular system as seen in the control animals is suppressed | Kidney: basophilic tubuli, mean score (0-3) [2, 3]: 0.18 | Kidney: chronic disease, mean score (0-3) [2, 3]: 0.88 | Kidney: mineralization (parenchum/pelvis), mean score (0-3) [2, 3]: 0.84 | Pancreas: vasculopathy, mean score (0-3) [2, 3]: 0.04 | Kidney: basophilic tubuli, mean score (0-3) [2, 4]: 0.18 | Kidney: chronic disease, mean score (0-3) [2, 4]: 0.92 | Kidney: mineralization (parenchum/pelvis), mean score (0-3) [2, 4]: 0.64 | Pancreas: vasculopathy, mean score (0-3) [2, 4]: 0.02 | Kidney: basophilic tubuli, mean score (0-3) [2, 5]: 0.42 | Kidney: chronic disease, mean score (0-3) [2, 5]: 0.78 | Kidney: mineralization (parenchum/pelvis), mean score (0-3) [2, 5]: 0.14 | Pancreas: vasculopathy, mean score (0-3) [2, 5]: 0.00 | Kidney: basophilic tubuli, mean score (0-3) [2, 6]: 0.18 | Kidney: chronic disease, mean score (0-3) [2, 6]: 1.32 | Pancreas: vasculopathy, mean score (0-3) [2, 6]: 0.04 | Parathyroid gland: diffuse hyperplasia, mean score (0-3) [2, 6]: 0.08 | Parathyroid gland: focal hyperplasia, mean score (0-3) [2, 6]: 0.04 | Testis: vasculopathy, mean score (0-3) [2, 6]: 0.20 | Kidney: basophilic tubuli, mean score (0-3) [2, 7]: 0.18 | Kidney: chronic disease, mean score (0-3) [2, 7]: 1.24 | Pancreas: vasculopathy, mean score (0-3) [2, 7]: 0.02 | Parathyroid gland: diffuse hyperplasia, mean score (0-3) [2, 7]: 0.15 | Parathyroid gland: focal hyperplasia, mean score (0-3) [2, 7]: 0.02 | Testis: vasculopathy, mean score (0-3) [2, 7]: 0.08 | Abdominal mesothelia: vasculopathy, mean score (0-3) [2, 8]: 0.00 | Kidney: basophilic tubuli, mean score (0-3) [2, 8]: 0.60 | Kidney: chronic disease, mean score (0-3) [2, 8]: 0.66 | Pancreas: vasculopathy, mean score (0-3) [2, 8]: 0.00 | Parathyroid gland: diffuse hyperplasia, mean score (0-3) [2, 8]: 0.02 | Parathyroid gland: focal hyperplasia, mean score (0-3) [2, 8]: 0.00 | Testis: vasculopathy, mean score (0-3) [2, 8]: 0.02
